For test [1], the system named is IDDM associated autoantibodies. Kind of test: ELISA of patient and control sera on plate-bound human GAD65 peptides. Type of test: binding. The conditions noted are these: none of the control sera. An excerpt:
A set of peptides (20-23 amino acids in length, with 5 aa overlaps) that span the human GAD65 molecule were synthesized to determine whether sera from most individuals at risk, pre-IDDM and with IDDM (in contrast to healthy controls) do in fact produce antibodies that differentially recognize GAD65 linear epitopes distributed throughout the molecule.
Patient sera and most control sera were those used in a previous study (Kaufman, et al., J. Clin. Investigation, supra) All samples were coded and tested in a blind manner. Peptides were synthesized using an automatic instrument (Applied Biosystems, Foster City, Calif.) and standard conditions. Peptides were dissolved in 60 mM sodium bicarbonate buffer (pH 9.6) at 20 ug/ml and 100 ul of each was added to duplicated wells of a 96 well Nunc-Immuno Plate. Peptides were allowed to bind at 4° C. overnight. The plates were then washed three times with PBS+0.1% Tween 20 (wash buffer), after which the plates were pre-absorbed with 3% BSA in sodium bicarbonate buffer for 0.5 hours at 37° C., or at room temperature overnight. The plates were then washed 5 times with the above wash buffer. 100 ul of serum at a 1/300 dilution in PBS+0.1% Tween 20 and 1% BSA was added to each well and antibodies were allowed to bind for 1 hour at 37° C. […] The color development was measured at 410 nm using an ELISA plate reader (ICN, Biomedicals, Costa Mesa, Calif.). […]
A general note: In an ELISA, binding on a coated surface is turned into a signal by an enzyme label.

Test [2] has as its system autoantibodies to GAD65. Kind of test: Immunoprecipitation of 35S-GAD65 by sera drawn before IDDM onset. It counts as binding, human. Particulars: sera drawn 3 to 66 months before IDDM onset. On the procedure:
5. Islet Cell Extractions and Immunoprecipitations. Islet cells were extracted as previously described by Atkinson, et al. (Lancet, 335:1357-1360, 1990) with the following modifications. […] Following another incubation with protein A Sepharose CL-4B (1 h, 4° C.), the complexes were then washed 5 times with 50 mM Tris HCL (pH 7.4) with 0.1% SDS, 1.0% Triton X-114, and 2 mM EDTA, and then washed again one time in double distilled water. The protein A Sepharose CL-4B was then boiled in Laemmli sample buffer (Laemmli, Nature, 227:680-685, 1970), and the samples were subjected to SDS-PAGE and fluororadiography (Kodak, X-omat AR5) using Enhance (New England Nuclear). Alternatively, the autoradiographs were analyzed by a BETAGEN (Boston, Mass.) analyzer. Both 64 KA positive and negative sera were used in each assay, to serve as interassay controls. All fluororadiographs were analyzed and rated as positive or negative after comparison with the known interassay controls.
A similar rating procedure was employed for the intensity of bands corresponding to immunoprecipitated ^35 S-GAD65 and ^35 S-GAD67.
6. Immunoprecipitations. […]
8. […] After sonication, cell debris was removed by centrifugation and protein concentration was measured (Bradford, Anal.Biochem., 72:248, […]) in the supernatant (supernatant was stored in aliquots at -70° C.).

Turning to KPCSCSKVDVNYAFLHATDL [Peptide 6], the “share of patients recognizing the peptide” value in test [1] is 25-37%.

B1: ^35 S-GAD65: 35S-labeled rat GAD65 produced in a bacterial expression system (protein, UniProt Q05683 1-585, looked up)
Glutamate decarboxylase 2: MASPGSGFWSFGSEDGSGDPENPGTARAWCQVAQKFTGGIGNKLCALLYGDSEKPAESGGSVTSRAATRKVACTCDQKPCSCPKGDVNYALLHATDLLPACEGERPTLAFLQDVMNILLQYVVKSFDRSTKVIDFHYPNELLQEYNWELADQPQNLEEILTHCQTTLKYAIKTGHPRYFNQLSTGLDMVGLAADWLTSTANTNMFTYEIAPVFVLLEYVTLKKMREIIGWPGGSGDGIFSPGGAISNMYAMLIARYKMFPEVKEKGMAAVPRLIAFTSEHSHFSLKKGAAALGIGTDSVILIKCDERGKMIPSDLERRILEVKQKGFVPFLVSATAGTTVYGAFDPLLAVADICKKYKIWMHVDAAWGGGLLMSRKHKWKLNGVERANSVTWNPHKMMGVPLQCSALLVREEGLMQSCNQMHASYLFQQDKHYDLSYDTGDKALQCGRHVDVFKLWLMWRAKGTTGFEAHIDKCLELAEYLYNIIKNREGYEMVFDGKPQHTNVCFWFVPPSLRVLEDNEERMSRLSKVAPVIKARMMEYGTTMVSYQPLGDKVNFFRMVISNPAATHQDIDFLIEEIERLGQDL
modifications: 35S label
notes: 35S-labeled rat GAD65 produced in a bacterial expression system
In the case of B1, the “specimens immunoreactive with the labeled protein” value in test [2] is given as 9 out of 12.

For the origin of these results see patent US5998366A, “Method for ameliorating glutamic acid decarboxylase associated autoimmune disorders” (The Regents of the University of California, priority 1997, dated 1999).
